Here are results for one molecule from PMC8945229, “Development and Biological Characterization of a Novel Selective TrkA Agonist with Neuroprotective Properties against Amyloid Toxicity” (Biomedicines, 2022).

In this test the target is T1, TrkA (Rattus norvegicus, UniProt P35739).
T1 construct: we used PC12 cells, a cell line that express TrkA and p75^NTR; host or cells: PC12
The test can be described thus: TrkA phosphorylation in PC12 cells (IP with TrkA antibody, Western blot against phosphorylated Tyrosine). The format is cell-based. How it is done: For immunoprecipitation experiments PC12 or HEK293T, cells were used when at 70–80% confluent. […] Cells were then lysed in Pierce™ IP Lysis Buffer (87788, Thermo Fischer Scientific, Waltham, MA, USA) containing proteases (539138, Calbiochem, Darmstadt, Germany) and phosphatase inhibitors (524629, Calbiochem, Darmstadt, Germany). Lysates were then immunoprecipitated overnight at 4 °C with TrkA antibody (1:100, 06-574, Sigma-Aldrich, St. Louis, MO, USA) (Table S1) or p75^NTR antibody (1:100, ab6172, Abcam plc., Cambridge, UK) followed by 4 h incubation with protein G-plus agarose beads (sc-2002, Santa Cruz Biotechnology, Inc., Dallas, TX, USA). Beads were then collected, washed 3X with lysis buffer, resuspended in SDS loading buffer and subjected to Western blot against phosphorylated Tyrosine (1:1000, BAM1676, R&D Systems, Inc., Minneapolis, MN, USA) or Traf6 antibody (1:2000, ab33915, Abcam, plc., Cambridge, UK). Whole cell lysates were subjected to Western blot against TrkA (1:1000, 06-574, Sigma-Aldrich, St. Louis, MO, USA), phosphorylated TrkB (1:1000, ABN1381, Sigma-Aldrich, St. Louis, MO, USA), phosphorylated TrkC (1:1000, STJ90960, St John’s Laboratory, Ltd., London, UK), TrkB (1:1000, 07-225-I, Sigma-Aldrich, St. Louis, MO, USA), TrkC (1:1000, C44H5, Cell Signaling Technology, Danvers, MA, USA), p75 (1:1000, 839701, Biolegend, Inc., San Diego, CA, USA), Traf6 (1:2000, ab33915, Abcam, plc., Cambridge, UK) phosphorylated Akt (1:1000, 9721S, Cell Signaling Technology, Danvers, MA, USA), phosphorylated Erk1/2 (1:1000, 9101S, Cell Signaling Technology, Danvers, MA, USA), total Akt (1:1000, 4691S Cell Signaling Technology, Danvers, MA, USA) and total Erk1/2 (1:1000, 4695S, Cell Signaling Technology, Danvers, MA, USA).

T1 sequence (P35739 33-799): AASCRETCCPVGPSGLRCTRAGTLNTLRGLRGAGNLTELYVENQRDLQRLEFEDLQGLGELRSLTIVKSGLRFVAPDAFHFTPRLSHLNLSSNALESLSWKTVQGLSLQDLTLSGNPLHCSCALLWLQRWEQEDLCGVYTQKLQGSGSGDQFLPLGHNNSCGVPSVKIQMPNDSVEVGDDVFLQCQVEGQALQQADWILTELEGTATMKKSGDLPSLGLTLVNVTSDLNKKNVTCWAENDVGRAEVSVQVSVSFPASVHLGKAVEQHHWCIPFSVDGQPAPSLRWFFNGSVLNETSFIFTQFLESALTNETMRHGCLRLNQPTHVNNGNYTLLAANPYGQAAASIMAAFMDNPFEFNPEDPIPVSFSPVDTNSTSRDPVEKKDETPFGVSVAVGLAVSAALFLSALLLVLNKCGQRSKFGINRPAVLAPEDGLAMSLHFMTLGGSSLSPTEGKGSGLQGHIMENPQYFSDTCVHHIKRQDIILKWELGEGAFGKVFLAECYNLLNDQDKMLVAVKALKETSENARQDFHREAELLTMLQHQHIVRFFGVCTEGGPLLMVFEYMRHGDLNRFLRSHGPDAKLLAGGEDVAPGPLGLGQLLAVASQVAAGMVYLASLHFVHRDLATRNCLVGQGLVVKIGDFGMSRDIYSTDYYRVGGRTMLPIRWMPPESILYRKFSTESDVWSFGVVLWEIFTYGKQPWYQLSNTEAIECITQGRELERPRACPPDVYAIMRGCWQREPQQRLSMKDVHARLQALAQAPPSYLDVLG

In the case of `CC12CCC(O)CC1=CCC1C2CCC2(C)C1CCC21CC1C=CBr` [ENT-A013, (2′R,3S,17S)-2′-(2-Bromovinyl)-5-Androstene-17,1′-Cyclopropan-3-ol], where the note is “PC12 cells, 10, 30 or 60′ treatment”, the “time TrkA phosphorylation is sustained after treatment” value is on record as “up to 1 hr”. The TrkA phosphorylation (PC12 cells, compound 500 nM or NGF 100 ng/mL, 30′) is listed as 2.05 ± 0.21 % of control FC.
